Active and inactive are the calls of the source. The rule behind the calls is not given here.
molecular target: Transient receptor potential cation channel subfamily M member 7 (Mus musculus) (UniProt Q923J1); test: Inhibition of Tet-induced Flag-tagged mouse TRPM7 expressed in HEK293 cells assessed as inhibition of channel-mediated cell death in presence of Mg2+ incubated for 24 to 48 hrs by propidium iodide uptake assay; format: cell-based; design: concentration or dose not given beside the values; details: not given
Sequence (Q923J1 whole entry): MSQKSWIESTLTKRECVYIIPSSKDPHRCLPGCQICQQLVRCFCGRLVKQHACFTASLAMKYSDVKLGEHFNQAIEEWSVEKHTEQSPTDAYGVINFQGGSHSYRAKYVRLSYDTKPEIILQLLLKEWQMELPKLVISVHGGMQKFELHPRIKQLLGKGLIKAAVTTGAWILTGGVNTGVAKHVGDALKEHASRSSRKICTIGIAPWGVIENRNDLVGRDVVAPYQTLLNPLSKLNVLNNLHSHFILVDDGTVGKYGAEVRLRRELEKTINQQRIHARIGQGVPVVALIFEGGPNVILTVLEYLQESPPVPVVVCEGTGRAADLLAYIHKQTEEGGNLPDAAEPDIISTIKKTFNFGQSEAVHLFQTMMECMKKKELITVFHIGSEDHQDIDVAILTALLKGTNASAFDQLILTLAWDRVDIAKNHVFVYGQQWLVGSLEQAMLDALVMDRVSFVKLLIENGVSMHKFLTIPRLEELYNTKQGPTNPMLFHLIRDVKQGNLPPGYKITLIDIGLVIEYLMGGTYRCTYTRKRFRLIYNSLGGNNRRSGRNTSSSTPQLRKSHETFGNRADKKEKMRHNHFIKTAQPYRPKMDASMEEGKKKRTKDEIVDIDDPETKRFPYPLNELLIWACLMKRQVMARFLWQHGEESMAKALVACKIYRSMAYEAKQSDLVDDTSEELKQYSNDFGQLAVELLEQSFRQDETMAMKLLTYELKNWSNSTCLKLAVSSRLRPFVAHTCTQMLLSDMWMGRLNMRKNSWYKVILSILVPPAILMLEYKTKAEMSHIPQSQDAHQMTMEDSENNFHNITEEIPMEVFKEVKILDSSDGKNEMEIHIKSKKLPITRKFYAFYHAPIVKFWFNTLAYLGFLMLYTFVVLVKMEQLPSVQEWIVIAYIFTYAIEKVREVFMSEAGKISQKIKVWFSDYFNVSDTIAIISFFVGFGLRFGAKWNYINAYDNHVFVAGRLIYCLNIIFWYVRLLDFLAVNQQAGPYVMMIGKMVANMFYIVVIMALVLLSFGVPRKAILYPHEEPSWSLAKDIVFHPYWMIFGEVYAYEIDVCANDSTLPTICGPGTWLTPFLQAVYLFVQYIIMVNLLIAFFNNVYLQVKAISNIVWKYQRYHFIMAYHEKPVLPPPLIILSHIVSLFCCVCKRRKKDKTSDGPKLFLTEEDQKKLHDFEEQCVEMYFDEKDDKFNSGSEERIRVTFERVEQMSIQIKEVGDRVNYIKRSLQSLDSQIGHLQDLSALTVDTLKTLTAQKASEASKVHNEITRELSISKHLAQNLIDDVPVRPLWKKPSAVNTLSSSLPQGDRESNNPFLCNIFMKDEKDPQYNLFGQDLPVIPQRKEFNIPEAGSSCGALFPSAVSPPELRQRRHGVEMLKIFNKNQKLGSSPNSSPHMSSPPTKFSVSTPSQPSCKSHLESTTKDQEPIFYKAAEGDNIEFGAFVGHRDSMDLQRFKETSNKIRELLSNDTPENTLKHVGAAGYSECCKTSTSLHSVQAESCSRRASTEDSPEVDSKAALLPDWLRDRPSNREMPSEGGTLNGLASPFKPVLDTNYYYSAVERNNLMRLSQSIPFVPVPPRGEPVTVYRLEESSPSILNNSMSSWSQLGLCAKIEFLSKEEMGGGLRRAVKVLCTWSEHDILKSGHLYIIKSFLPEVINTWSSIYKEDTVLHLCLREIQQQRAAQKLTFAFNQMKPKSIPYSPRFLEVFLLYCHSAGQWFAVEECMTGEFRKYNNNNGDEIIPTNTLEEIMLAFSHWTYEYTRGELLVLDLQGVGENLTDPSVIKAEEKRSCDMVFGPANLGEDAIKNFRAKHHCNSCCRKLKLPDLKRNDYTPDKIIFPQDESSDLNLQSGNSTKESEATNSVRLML

`COc1cc(/C=C/C(=O)N2CCC=CC2=O)cc(OC)c1OC` was tested, and the inhibition was “Dose-dependent effect”.
With `CCOc1ccc(Cc2nccc3cc(OCC)c(OCC)cc23)cc1OCC` the inhibition was “Dose-dependent effect”.
In the case of `Cc1ccc(NS(=O)(=O)c2ccc(-c3csc(C)n3)s2)c(C)c1`, the inhibition is reported as “Active”.
In the case of `COc1ccc(C[C@H]2NC[C@H](O)[C@H]2OC(C)=O)cc1`, the inhibition is reported as “Dose-dependent effect”.
For `C=C(C)[C@@H]1CC[C@]2(C(=O)O)CC[C@]3(C)[C@H](CC[C@@H]4[C@@]5(C)CC[C@H](O)C(C)(C)[C@@H]5CC[C@]43C)[C@@H]12`, the inhibition was “Dose-dependent effect”.

same assay, conditions: concentration not given here

Point of comparison: `Nc1nc(-c2ccc(-c3ccccc3)cc2)cs1`, inhibition 40%. Against it:
- CCOC(=O)C(=CNc1csc(C)c1C(=O)OC)C(=O)OCC — higher, 60%
- NCCCNc1ccc2c3c(nn2CCNCCO)-c2c(O)ccc(O)c2C(=O)c13 — higher, 80%
- C=C(C(=O)OC)C(O)c1ccc(Br)cc1 (stereo not given) — higher, 60%
- O=c1oc2cc(O)ccc2c(O)c1Cc1ccc(Cl)c(Cl)c1 — higher, 80%
- CC(C)(C)c1ccc(N2C(=N)SCC2=O)cc1 — the same, 40%
- O=S(=O)(CS(=O)(=O)Oc1ccc(Cl)cc1Cl)Oc1ccc(Cl)cc1Cl — lower, < 30%
- Cc1cc(C)c(-n2nnnc2SCC(=O)Nc2ccccc2Cl)c(C)c1 — lower, < 30%
- CS/C(=N\c1ccc(C)cc1)Nc1ccc(C)cc1 — higher, 50%
- O=C(NC(=O)c1c(Cl)cccc1Cl)Nc1nc2cc(Cl)ccc2s1 — higher, 50%
- C#CCSc1nc(-c2ccc(C(F)(F)F)cc2)nc(C)c1C(C)=O — lower, < 30%
- CC(C)c1ccc(NC(=O)c2c(-c3ccccc3)nnc3ccccc23)cc1 — lower, < 30%
- O=C(N/C=C/c1cccs1)Nc1ccc(Cl)cc1 — lower, < 30%
- O=C(Oc1ccccc1)c1csc(C2COc3ccccc3O2)n1 (stereo not given) — lower, < 30%
- C/C=C(\C)C(=O)Nc1nncs1 — lower, < 30%
- O=C(Nc1ccc(F)cc1F)c1cc(Cl)cc(Cl)c1O — lower, < 30%
- Cc1nn(Cc2nc(-c3ccc(Cl)cc3)cs2)c(C)c1Br — the same, 40%
- CC(C)(C)c1cc2nc(C(F)(F)F)cc(N3CCN(S(=O)(=O)c4ccccc4)CC3)n2n1 — lower, < 30%
- COc1cc2c(cc1OC)C(c1cccc(C)c1)N(C(=O)c1sc3ccccc3c1Cl)CC2 (stereo not given) — the same, 40%
- O=C(/C=N/O)Nc1ccccc1F — lower, < 30%
- COc1ccc(CCNC(=O)c2sc3ccccc3c2Cl)cc1OC — lower, < 30%
- O=[N+]([O-])c1cccc(-c2ccc(/C=N/NC(=S)Nc3cccc(F)c3)o2)c1 — lower, 30%
- Oc1cc(C(F)(F)F)nc(SCc2ccccc2)n1 — higher, 80%
- O=C1NC(=S)S/C1=C\c1cccc([N+](=O)[O-])c1 — lower, < 30%
- CC(C)(C)c1cc(C(=O)/C(C#N)=N/Nc2cccc(Cl)c2)no1 — higher, 70%
- CCOC(=O)c1ccc2c(c1)CC/C(=C\c1cccc(C(F)(F)F)c1)C2=O — lower, < 30%
- Fc1ccc(N2CCN(Cc3c[nH]c(-c4ccccc4)n3)CC2)cc1 — higher, 70%
- N#C/C(=N\Nc1ccc(Cl)cc1)C(N)=S — higher, 60%
- c1ccc(CSc2nccc(-c3ccc4c(c3)CCO4)n2)cc1 — higher, 70%
- CS(=O)(=NS(=O)(=O)c1ccc(Cl)cc1Cl)c1ccc(Cl)cc1 (stereo not given) — lower, < 30%
- O=C(O)CSc1cc(C(F)(F)F)nc2ccccc12 — lower, 30%
- O=S(=O)(Cc1nc2ccc(Cl)cc2s1)CS(=O)(=O)Nc1nc2ccc(Cl)cc2s1 — higher, 70%
- COc1ccc(CCN2C(=O)CS/C2=N\c2ccc(C(C)(C)C)cc2)cc1OC — lower, < 30%
- O=C(Oc1ccc(Oc2ccccc2)cc1)N1CCC(OC(=O)n2ccnc2)CC1 — lower, < 30%
- COc1cc2c(cc1OC)C(C(=O)c1sc3ccccc3c1Cl)=NCC2 — higher, 80%
- Cc1c(S(=O)(=O)Nc2ccc(Cl)cc2)sc2ccc(Cl)cc12 — lower, < 30%
- CCOC(=O)c1c(C)n(-c2ccccc2)c2ccc(OC(=O)C(c3ccccc3)C3CCCC3)cc12 (stereo not given) — lower, 30%
- COc1cc2c(cc1OCC(=O)Nc1ccc(C)cc1)C=CC(C)(C)O2 — lower, 30%
- Cc1c(-c2nc(-c3ccc(C(C)(C)C)cc3)no2)n(C)oc1=O — lower, < 30%
- O=C(Nc1cccc([N+](=O)[O-])c1)c1ccccc1O — higher, 60%
- Cc1cc(O)nc2c1c(C)nn2C — lower, < 30%
- CC(=O)CC(O)c1ccncc1 (stereo not given) — lower, < 30%
- O=C1/C(=C\c2ccc3c(c2)OCO3)C(c2ccccc2)Oc2ccccc21 (stereo not given) — higher, 50%
- Cc1csc2ncnc(N3CCN(C(=O)Nc4ccc(OC(F)(F)F)cc4)CC3)c12 — higher, 50%
- N/C(=N\OC(=O)c1ccc(OCC(F)(F)F)nc1)c1ccc(OC(F)(F)F)cc1 — lower, < 30%
- O=c1c(-c2ccccc2)c(O)c2cccc3c4ccccc4n1c23 — higher, 90%
- Clc1ccc(-c2noc(-c3sccc3Cl)n2)cc1 — higher, 60%
- Cn1nc(-c2ccc(Cl)cc2)cc1NS(=O)(=O)c1cccc2nonc12 — lower, < 30%
- CC12CCC(C(=O)N3CCSCC3)(OC1=O)C2(C)C (stereo not given) — lower, < 30%
- OC(CN1CCN(C(c2ccccc2)c2ccccc2)CC1)c1ccccc1 (stereo not given) — higher, 60%
- CC(C)(C)OC(=O)N1CCN(c2ccc(NS(=O)(=O)c3ccc(Cl)cc3)cn2)CC1 — lower, < 30%
- CCOC(=O)C(=CNc1cc(OC)cc(C(F)(F)F)c1)C(=O)OCC — higher, 70%
- CC(=O)OC[C@H](OC(C)=O)[C@@H](OC(C)=O)[C@@H](OC(C)=O)[C@H](OC(C)=O)c1nnn[nH]1 — lower, < 30%
- COc1ccc(-c2[nH]ncc2CN2CCN(c3ccc(F)cc3)CC2)cc1 — lower, < 30%
- CN(C)c1cccc(N(C)C)c1CNC(=O)Nc1ccccc1 — lower, < 30%
- N#Cc1cc(CCCCc2cc(C#N)c3ccccc3c2)cc2ccccc12 — lower, < 30%
- CCOC(=O)c1cc2c(NC(=O)c3ccc(Cl)cc3)c(C(=O)OCC)sc2nc1C(F)(F)F — lower, < 30%
- Cc1csc(NC(=O)C(F)(F)F)c1C(N)=O — higher, 50%
- COc1ccccc1C1CCN(S(=O)(=O)c2ccc(C(C)C)cc2)CC1 — higher, 80%
- Clc1ccc(CO/N=C/c2nc3ccccc3s2)cc1 — the same, 40%
- Cc1onc(-c2ccccc2)c1-c1cnn(S(=O)(=O)c2ccc(Cl)cc2)c1 — lower, 30%
- O=c1ccn(-c2ccc(F)cc2)nc1-c1ccnc(SCc2ccc(C(F)(F)F)cc2)n1 — lower, < 30%
- Cc1csc2ncnc(N3CCN(S(=O)(=O)c4ccc(Cl)cc4)CC3)c12 — higher, 70%
- CSC1=N/C(=C\c2ccc(Cl)cc2)C(=O)N1Cc1ccco1 — higher, 60%
- CCOC(=O)C(=CNNC(=O)c1cnn(-c2ccc([N+](=O)[O-])cc2)c1C(F)(F)F)C(=O)OCC — higher, 90%
- O=C(Nc1cccc(C(F)(F)F)c1)Nc1nnc(C2CC2)s1 — higher, 50%
- CC(C)NC(=O)n1ccc(-c2nn(-c3ccc(F)cc3)ccc2=O)n1 — lower, < 30%
- c1ccc2c(CN3CCN(Cc4ccc5c(c4)OCO5)CC3)c[nH]c2c1 — higher, 60%
- O=C(NNC(=S)Nc1cc(Cl)ccc1Cl)c1ccccc1Cl — lower, < 30%
- CCOC(=O)C(=CNNC(=O)c1cccs1)C(=O)OCC — higher, 60%
- CCOC(=O)CCc1cc(/N=C/c2cc(Cl)cc(Cl)c2O)c(O)c(/N=C/c2cc(Cl)cc(Cl)c2O)c1 — higher, 50%
- CC(=O)Nc1ccc(S(=O)(=O)NNc2c(Cl)cncc2Cl)cc1Cl — higher, 50%
- CC(C)N(Cc1ccc(N(C)C)cc1)C(=O)c1sc2ccccc2c1Cl — higher, 50%
- CCOC(=O)C(=CNNS(=O)(=O)c1cc(C(F)(F)F)cc(C(F)(F)F)c1)C(=O)OCC — the same, 40%
- CC1(C)C=Cc2ccc(OCC(=O)Nc3ccccc3)cc2O1 — lower, 30%
- c1ccc(/N=c2/[n-]n(-c3ccccc3)c[n+]2-c2ccccc2)cc1 — lower, < 30%
- CSc1sc(Br)c2c1C(=O)CCC2 — lower, < 30%
- C/C=N/N(c1ccccc1)c1cc(-c2ccc(OC)cc2)c(C#N)c(=O)[nH]1 — higher, 60%
- N#Cc1ccc(/C=N/Nc2ncc(-c3ccc4c(c3)OCCCO4)s2)cc1 — higher, 70%
- CN(C)c1cc(-c2cc(Cl)sc2Cl)oc(=O)c1Cl — lower, < 30%
- Cc1nnsc1C(=O)NCc1csc2ccc(Cl)cc12 — lower, < 30%
- O=C(O)c1cc(C(F)(F)F)cc(C(F)(F)F)c1 — lower, < 30%
- CC(=O)CSc1nnc(CN2C(=O)CSc3ccc(C(F)(F)F)cc32)n1C — lower, < 30%
- NC(=O)c1sc(-c2ccc(Cl)cc2)cc1NS(=O)(=O)c1ccc(Cl)cc1 — higher, 50%
- Cc1ccc(C(=O)Nc2cccnc2Oc2ccc(C(C)(C)C)cc2)cc1C — higher, 60%
- CC(C)NC(=O)n1nccc1-c1cc(-c2ccccc2)no1 — lower, < 30%
- O=C(Nc1ccc(OC(F)(F)F)cc1)Nc1cc(-c2ccccc2)n[nH]1 — lower, < 30%
- COc1ccc(NC(=S)Nc2ccc(C)c(NS(C)(=O)=O)c2)cc1 — higher, 70%
- C=CC/N=C1/NC(=O)C(CC(=O)Nc2ccc(Cl)cc2)S1 (stereo not given) — higher, 50%
- Cc1ccc(C(=O)/C=C/C(=O)O)c(C)c1F — higher, 60%
- N=C(NC(=O)c1cccc(Cn2cc(C(F)(F)F)ccc2=O)c1)c1ccc(Cl)cc1 — the same, 40%
- Clc1ccc2c(N3CCCCC3)ccnc2c1 — lower, < 30%
- CC[n+]1c(/C=C/c2ccc(OC)cc2)ccc2ccccc21 — lower, < 30%
- Cc1ccc(NS(=O)(=O)c2ccc(-c3cnc(C)s3)s2)c(C)c1 — higher, 80%
- COc1c(C(C)(C)C)cc(/N=C/c2ccccc2O)c(C)c1/N=C/c1ccccc1O — higher, 60%
- Cc1ccc(S(=O)(=O)Nc2ccccc2Oc2ccccc2)cc1 — lower, < 30%
- COc1cc2c(cc1OC)C(c1cccc(C)c1)NCC2 (stereo not given) — higher, 60%
- Cc1onc(-c2c(Cl)cccc2Cl)c1C(=O)Oc1ccc2c(C(F)(F)F)cc(=O)oc2c1 — lower, < 30%
- COc1ccc(C(=O)Nc2c(-c3cccc(C(F)(F)F)c3)c(C(F)(F)F)nn2C)cc1OC — lower, < 30%
- CCOC(=O)c1c(-n2c(C)ccc2C)sc2c1CCCC2 — higher, 70%
- COc1ccc(C(=O)Nc2c(-c3ccc(Br)cc3)c(C(F)(F)F)nn2C)cc1OC — lower, < 30%
- COc1ccc(CCNc2ccc(C(F)(F)F)cc2[N+](=O)[O-])cc1OC — lower, 30%
- CCOC(=O)c1nn(-c2cccc(Cl)c2)cc(Sc2ccc(Cl)cc2)c1=O — the same, 40%
- CC(C)NC(=O)c1cc(-c2cccs2)on1 — lower, 30%
- N#CC(C#N)=CNc1cc(C(F)(F)F)ccc1N1CCCC1 — the same, 40%
